Laboratory results from patent US20080096251A1, “Invertebrate-Derived Gonadotropic Hormone and its Synthesis” (priority 2004, published 2008).

Assays:
[1] = test system: ovary of Asterias amurensis; assay: gonad-stimulating activity: spawning of matured eggs from ovary fragments in a two-fold dilution series; assay type: cell-based; details: Asterias amurensis ovary piece in seawater, 25° C., spawning after 1 hr
Procedure: (§1) Gonad-stimulating activity could be measured by the following methods:
(§2) Those individuals, whose eggs are highly sensitive to oocyte maturation-inducing hormone, are selected from matured invertebrate female individuals and are separated as test individuals.
(§3) Ovaries are excised from test individuals into seawater and are cut in small pieces. The assay plate for multiple test samples is filled with 200 μl seawater. Two μl of a test sample for gonad-stimulating activity is diluted to 200 folds by mixing with 398 μl seawater. The half portion (200 μl) is diluted to two fold by mixing with 200 μl seawater in the assay plate. The half portion (200 μl) is further diluted to two fold by mixing with 200 μl seawater in the assay plate. Repeating of the procedure results in preparation of two fold dilution series from 200-folds dilution to 102,400-folds dilution. A small piece of ovary is added to each dilution sample and is allowed to rest at 25° C. The gonad-stimulating activity is evaluated by spawning of matured eggs from a contracted small piece of ovary after 1 hr. The relative gonad-stimulating activity is assessed by the degree of dilution.
(§4) In the following Examples, gonad-stimulating activity are examined by the following way:
(§5) Two to three individuals bearing oocyte with high sensitivity of a gonadotropic hormone (1-methyladenine) are selected from several tens of female individuals of matured Asterina pectinifera (or Asterias amurensis) and are separated as test individuals.
(§6) The selection was performed in the following way:
(§7) The oocyte maturation-inducing hormone was diluted to 6 different concentrations, i.e. 10^−6 M, 3×10^−7 M, 10^−7 M, 3×10^−8 M, 10^−8 M, and 3×10^−9 M, in seawater, wherein small fragment of ovary was added to the different concentrations of maturation-inducing hormone and was allowed to stand for 60 min at room temperature. Maturation of oocyte was examined under microscope after 60 min to see whether the structure of nuclei in an oocyte was degraded to prepare for next fertilization. The concentration of the oocyte maturation-inducing hormone at maturation was checked and those individuals, which were matured at less than 10^−7 M, were used as test individuals.
as §3, with “(with tufted morphology) were removed” for “are excised”, “were” for “are”, “into about 5 mm fragments.” for “in small pieces.”, “hr (FIG. 1).” for “hr.”

[2] = test system: ovary of Asterina pectinifera; assay: as above; assay type: cell-based; details: for EC50(nM) gonad-stimulating activity, Asterina pectinifera: Asterina pectinifera ovary piece in seawater, 25° C., spawning after 1 hr; for gonad-stimulating activity (in words): summary of Table 1, Asterina pectinifera
Procedure: as §1, §2, §3, §4, §5, §6, §7
as §3, with “(with tufted morphology) were removed” for “are excised”, “were” for “are”, “into about 5 mm fragments.” for “in small pieces.”, “hr (FIG. 1).” for “hr.”

Sequence: EKYCDDDFHMAVFRTCAVS [GSS-A, synthesized subunit peptide, 19 amino acid residues, molecular weight 2236]
- EC50(nM) gonad-stimulating activity, Asterias amurensis [1]: No activity
- EC50(nM) gonad-stimulating activity, Asterina pectinifera [2]: No activity
- gonad-stimulating activity (in words) [2]: did not show gonad-stimulating activity

Sequence: SEYSGIASYCCLHGCTPSELSVVC [GSS-B]
- EC50(nM) gonad-stimulating activity, Asterias amurensis [1]: No activity
- EC50(nM) gonad-stimulating activity, Asterina pectinifera [2]: No activity
- gonad-stimulating activity (in words) [2]: did not show gonad-stimulating activity
